Laboratory results reported in US8852860B2, “Sperm-specific cation channel, CatSper1 and uses therefor” (Children's Medical Center Corporation, priority 2001, dated 2014).

Columns and labels:
[1] = system: caudal epididymal wild-type sperm; experiment: Ca2+ imaging of Fluo-4 loaded sperm, wild-type; format: cell-based, mouse
Procedure: (§1) For Ca^2+ imaging, sperm were prepared in HS medium (Wennemuth, et al. (2000), J Biol Chem 275, 21210-7) and loaded with 10 μM Fluo-4-AM and 0.05% Pluronic F-127 for 30 min. at room temperature. Washed cells were seeded onto Cell-Tak coated cover slips. Attached motile sperm were imaged in nonconfocal mode to avoid motion-induced fluorescence change artifacts. The 488 nm wavelength beam of an Argon-Krypton laser was used for excitation and fluorescence emission was collected at 512 nm (Zeiss LSM 410).
(§2) Wild-type and mutant sperm were loaded with Fluo-4 and their fluorescence measured by single photon confocal microscopy.

CatSper1^−/− sperm = experiment: Ca2+ imaging of Fluo-4 loaded sperm, CatSper1-/- mutant; format: cell-based, mouse
Procedure: as §1, §2

`Nc1nc2c(nc(Br)n2[C@@H]2O[C@@H]3COP(=O)(O)O[C@H]3[C@H]2O)c(=O)[nH]1` [8-Br-cGMP] was tested, and the “sperm head and tail [Ca^2+]i change (Fluo-4 fluorescence)” value ([1]; wild-type sperm, 1 mM membrane-permeant cyclic nucleotide in bath) was “initiated Ca^2+ influx in sperm” and the “cyclic nucleotide-induced Ca^2+ influx in mutant sperm” value (CatSper1^−/− sperm) was “neither cAMP nor cGMP elicited significant Ca^2+ influx”.
For `CN[C@@H]1C[C@H]2O[C@@](C)([C@@H]1OC)n1c3ccccc3c3c4c(c5c6ccccc6n2c5c31)C(=O)NC4` [staurosporine], the “block of cyclic AMP and cyclic GMP induced [Ca^2+]i increase” value ([1]; sperm incubated with 1 μM, 10 minutes) was “not blocked”.
For `O=C([O-])O.[Na+]` [sodium bicarbonate], the “[Ca^2+]i increase on addition to the bath” value ([1]; 20 mM in bath) was “induced an increase in [Ca^2+]i that was smaller than that observed with cyclic AMP or GMP”.
In the case of `CC(=O)[C@H]1CC[C@H]2[C@@H]3CCC4=CC(=O)CC[C@]4(C)[C@H]3CC[C@]12C` [progesterone], the “Ca^2+ influx (control for dye loading), wild-type sperm” value ([1]; wild-type sperm) is reported as “initiated a large Ca^2+ influx” and the “Ca^2+ influx (control for dye loading), mutant sperm” value (CatSper1^−/− sperm) is reported as “initiated a large Ca^2+ influx”.
